# Earlier results, collected in US20100144855A1, “APPLICATION OF SEDOISOPROSAN FOR PREPARATION OF MEDICINE FOR TREATMENT OF HUMAN HBeAg POSITIVE CHRONIC HEPATITIS B” (priority 2008, published 2010).
# Test system: HBsAg and HBeAg
# Details: animal experiments; cited from earlier work
compound,measurement,value
"CC1(C)OC2C3COC(CO)(O3)C(O)C2O1 (stereo not shown) [sedoisoprosan, isopropylidene sedoheptulosan]",secretion of HBsAg and HBeAg,inhibit
